The source made the active and inactive calls.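 Rule for the calls: active = IC50 of 10 µM or lower; inactive = IC50 above 10 µM.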
Tested on: HEK-293 Gal4-VP16 UAS luciferase reporter, luminescence
Test: GAL4-VP16 reporter repression curves – cell-based, luminescence, high throughput, SRC1 series, counter-screen for SRC1 inhibitor project, dose response (AID 602236);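 note: inhibitor potency where hits lower luciferase light from Gal4-VP16 transactivation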

Compound	IC50
CN(Cc1cnc2nc(N)nc(N)c2n1)c1ccc(C(=O)NC(CCC(=O)O)C(=O)O)cc1 (stereo not drawn)	> 35.9 µM (inactive)
COC(=O)c1cccc2c1-c1ccccc1/C2=N/O	4.87 µM
Cn1c(=O)c2[nH]c(COc3ccc(C(C)(C)C)cc3)nc2n(C)c1=O	8.31 µM
Nc1ccn([C@@H]2O[C@H](CO)[C@@H](O)C2O)c(=O)n1 (stereo partly drawn)	16.2 µM (inactive)
CCCCCOc1ccc(/C=C/c2c([N+](=O)[O-])c(=O)n(C)c(=O)n2C)cc1	10.1 µM (inactive)
O=C(N/N=C/c1ccccc1O)/C(=C/c1ccccc1)CCO	7.52 µM
CC(C)n1c(SCC(=O)Nc2nc3c(s2)CCCC3)nc2c1c(=O)n(C)c(=O)n2C	13.9 µM (inactive)
CC(=O)c1cccc(NC(=O)COc2cc3oc(=O)c(CC(C)O)c(C)c3cc2Cl)c1 (stereo not drawn)	> 35.9 µM (inactive)
COc1cc(C2c3cc4c(cc3C(OC3OC5COC(c6cccs6)OC5C(O)C3O)C3COC(=O)C23)OCO4)cc(OC)c1O (stereo not drawn)	> 35.9 µM (inactive)
OCCN1CCN(C(=S)c2ccc(-c3ccccc3)cc2)CC1	30.7 µM (inactive)
COc1cccc(/C=N/NC(=O)CNC(=O)C2COc3ccccc3O2)c1O (stereo not drawn)	11.1 µM (inactive)
CCOc1cc(C(N)=O)cc(Br)c1OC	17.1 µM (inactive)
Cc1c(/C(O)=C2/C(=O)C(=O)N(Cc3cccnc3)C2c2ccccn2)cnn1-c1ccccc1 (stereo not drawn)	> 35.9 µM (inactive)
O=C(CCl)N(c1ccccc1)C1CCS(=O)(=O)C1 (stereo not drawn)	16.2 µM (inactive)
NC(=O)c1cc(Sc2ccccc2)nc2ccccc12	11.6 µM (inactive)
Cc1cc(=O)[nH]c(Nc2cccc(Br)c2)n1	9.71 µM
CCOc1ccc(-c2noc(CCC(=O)O)n2)cc1	> 35.9 µM (inactive)
CCN(CC)CCNC(=O)c1ccc(NC(=O)C2CCN(c3ncnc4sc(C)c(C)c34)CC2)cc1	5.54 µM
Cc1nc2c(-c3ccc(Cl)cc3)c(C)[nH]n2c(=O)c1Cc1ccccc1	6.96 µM
O=C(Nc1ccncc1)c1ccccc1[N+](=O)[O-]	14.2 µM (inactive)
CC(=O)N1CCN(c2ccc(Oc3ncnc4sccc34)cc2)CC1	9.64 µM
COc1ccc(Cc2nnc(SCc3ccc([N+](=O)[O-])cc3)o2)cc1	15.3 µM (inactive)
CNc1cccnc1C=NNC(N)=S	18.4 µM (inactive)
O=C(NC(NC(=S)N1CCOCC1)C(Cl)(Cl)Cl)c1ccc(Cl)cc1 (stereo not drawn)	15.5 µM (inactive)
CC(C)(C)c1cc(C(=O)N/N=C/c2ccc(O)cc2)n(-c2ccccc2)n1	21.9 µM (inactive)

Compound	IC50
COc1cc2c(cc1OC)C(C)N(C(=O)c1cccc([N+](=O)[O-])c1)CC2 (stereo not drawn)	8.73 µM
CC(=O)NC(c1cc(Cl)c2cccnc2c1O)C(C)C (stereo not drawn)	8.06 µM
C=CCn1c(Oc2ccccc2F)nc2c1c(=O)n(C)c(=O)n2C	8.46 µM
Cc1c(CC(=O)NCCCC(=O)O)c(=O)oc2cc3c(cc12)CCC(C)(C)O3	18.4 µM (inactive)
Cc1noc(/C=C/c2ccco2)c1S(=O)(=O)N1CCC(C(=O)Nc2ccc(Cl)cn2)CC1	16.1 µM (inactive)
CC1CC(C)C(=NNC(N)=O)C(C(O)CC2CCC(=O)NC2=O)C1 (stereo not drawn)	12.2 µM (inactive)
c1cc2c(cn1)cnc1cscc12	11.8 µM (inactive)
CCn1c(Oc2cccc(Br)c2)nc2c1c(=O)n(C)c(=O)n2C	25.8 µM (inactive)
O=C(NC1CCCCC1)C(c1cccnc1)N(C(=O)CCl)c1cccc(Cl)c1 (stereo not drawn)	4.71 µM
O=C(Nc1cccnc1)c1ccc(C(=O)Nc2cccnc2)cc1	> 35.9 µM (inactive)
CCOc1cccc(/C=N/NC(=O)c2cc(C3CC3)[nH]n2)c1O	11.2 µM (inactive)
O=C(CCl)NC(Cc1ccccc1)c1ccccc1 (stereo not drawn)	20.8 µM (inactive)
Cc1ccc2nc(C(F)(F)F)c(C#N)c(N)c2c1	10.4 µM (inactive)
CCOC(=O)c1cccc2c1-c1ccccc1/C2=N/O	8.12 µM
N#Cc1cc2ccncc2c2ccccc12	6.89 µM
CCCCC(=O)Nc1cccn2ncnc12	> 35.9 µM (inactive)
O=C(O)c1ccccc1-c1c2cc(I)c(=O)c(I)c-2oc2c(I)c(O)c(I)cc12	> 35.9 µM (inactive)
Nc1ccn(C2OC(CO)C(O)C2O)c(=O)n1 (stereo not drawn)	21.7 µM (inactive)
O=C(CCn1cnc(-c2ccccc2)c1-c1ccccc1)N/N=C/c1ccccc1O	19.9 µM (inactive)
Cc1ccc(S(=O)(=O)NC(CC(C)C)C(=O)NCC(c2ccco2)N2CCCCC2)cc1 (stereo not drawn)	> 35.9 µM (inactive)
COc1ccc(-c2cnc(N)nc2-c2ccc(OC)cc2O)cc1	11.7 µM (inactive)
CCOc1cccc(/C=N/NC(=O)c2cccnc2)c1O	8.44 µM
CCc1nc(N)nc(N)c1-c1ccc(Cl)c([N+](=O)[O-])c1	> 35.8 µM (inactive)
Nc1ccc(-c2cc3ccccc3oc2=O)cc1	> 35.8 µM (inactive)
CCOC(=O)c1c(NC(=O)C(C)N2CCN(C(=O)c3ccco3)CC2)sc2c1CCCC2 (stereo not drawn)	11.4 µM (inactive)

Compound	IC50
Cc1ccc(NC(=O)C2CCN(c3ncnc4sc(C)c(C)c34)CC2)cc1S(=O)(=O)N(C)C	13.4 µM (inactive)
CCCc1cc(C(=O)N(C)CC(=O)Nc2ccc(OCC)c(OCC)c2)sc1C	> 35.9 µM (inactive)
COc1ccc(-c2cc(=O)oc3c(C)c(O)c(CN(C)C)cc23)cc1	15 µM (inactive)
COc1cc(C(=O)NC(=S)NNC(=O)c2cnccn2)cc(OC)c1OC	11.9 µM (inactive)
CN(Cc1cnc2nc(N)nc(N)c2n1)c1ccc(C(=O)N[C@@H](CCC(=O)O)C(=O)O)cc1	> 35.9 µM (inactive)
O=C(CCCc1nc(-c2ccccc2Cl)no1)NC1CCCC1	13.6 µM (inactive)
C=CCOc1ccc(/C=C2\SC(=S)N(CCC(=O)O)C2=O)cc1	> 35.9 µM (inactive)
Cc1ccc(S(=O)(=O)Nc2c(NC3CCCCC3)c3ccccc3oc2=O)c(C)c1	12.8 µM (inactive)
CN(C)c1ccc(Nc2ncnc3ccc(Br)cc23)cc1	3.2 µM
Cc1ccc(C)c(NC(=O)c2ccccc2NS(=O)(=O)c2cc([N+](=O)[O-])ccc2C)c1	3.98 µM
O=C(N/N=C/c1cc([N+](=O)[O-])ccc1O)c1cccc(N2CCCC2=O)c1	18.3 µM (inactive)
COc1cc([C@@H]2c3cc4c(cc3[C@@H](O[C@@H]3O[C@@H]5CO[C@@H](C)O[C@H]5[C@H](O)[C@H]3O)[C@H]3COC(=O)[C@H]23)OCO4)cc(OC)c1O	> 35.9 µM (inactive)
O=C(O)CN1C(=O)/C(=C\c2ccccc2OCc2ccc(Cl)cc2Cl)SC1=S	> 35.9 µM (inactive)
CCCCN(CCCC)c1ncnc2nc[nH]c12	6.97 µM
CC1CCN(C(=O)c2scc3c2OCCO3)CC1	16.4 µM (inactive)
CC(=O)NC(c1cc(Cl)c2cccnc2c1O)C1CC1 (stereo not drawn)	9.3 µM
CN(C)C(=O)c1ccc(-c2n[nH]c(=O)c3ccccc23)cc1	16.2 µM (inactive)
Cc1ccc2occ(/C=N/NC(=O)[C@@H](N)Cc3ccccc3)c(=O)c2c1	12.7 µM (inactive)
Cc1cc(/C=C2\Cc3ccccc3C2=O)c(C)n1-c1ccccc1	> 35.9 µM (inactive)
O=C(CCl)N1N=C(c2cccs2)CC1c1ccco1 (stereo not drawn)	20.2 µM (inactive)
Oc1ccc(C=NNc2ccccn2)c(O)c1	> 35.9 µM (inactive)
NS(=O)(=O)c1ccc(Nc2nc(-c3cccnc3)cs2)cc1	> 35.8 µM (inactive)
C=CCn1c(O)c(C(C)=NCc2cc(OC)cc(OC)c2)c(=O)[nH]c1=O	7.94 µM
